Laboratory results taken from patent US7361371B2, “Extract of petasites japonicus having neuroprotective effect and antioxidant activity” (Industry & Acacemic Cooreration in Chungnam National …, priority 2003, dated 2008).

Key:
[1] = system: lipid peroxidation in the brain of a mouse; experiment: Inhibition of Fe2+/ascorbic acid-induced lipid peroxidation (TBARS) in mouse brain homogenate; type: biochemical; settings: Fe2+ 0.2 mM / ascorbic acid 25 mM, 37° C., 30 minutes, TBARS at 533 nm
Protocol: Concretely, the brain of an ICR male mouse (22.5±2.5 g, 6 to 8 weeks old) was removed and washed with 0.15 M KCl solution containing 2 mm EDTA. The washed brain was ground using a tissue homogenizer (Teflon pestle). To 1 ml of the ground brain, 1 ml of 8.1% SDS, 2 ml of 20% acetic acid and 1 ml of 0.75% thiobarbituric acid (TBA) were added. The resulting mixture was boiled, cooled in ice for 30 minutes and centrifuged at 14,000 rpm for 10 minutes to obtain the supernatant. To the supernatant, 1 ml of each of the various solvent fractions of Petasites japonicus from Example 1 was added and Fe^2+ 0.2 mM and ascorbic acid 25 mM were added. The resulting mixture was thoroughly mixed while stirring at 37° C. After 30 minutes, to the mixture, 15% trichloroacetic acid (TCA) and 0.75% TBA were added in the same volume as the mixture. The reaction was boiled for 15 minutes, stored in ice for 5 minutes and centrifuged at 3,000 rpm for 10 minutes to remove corpuscolates. The supernatant was taken and measured for absorption at 533 nm (Bidlack, W. T., and Tappel, A. L., Lipids, 1973, 8, 177-182). Malondialdehyde (Gutteridge, J. M. C., Analytical Biochemistry, 1975, 69, 518-526) produced by hydrolysis of 1,1,3,3,-tetraethoxypropane) was used for calibration.
Asample: absorption of a mixture of brain hydrogenate, ascorbic acid/Fe^2+ and Petasites japonicus extract at 533 nm, […]

[2] = system: ICR mice (KA-induced oxidative neurotoxicity); experiment: Fatality rate of mice after kainic acid (KA) injection; type: in vivo, mouse
Protocol: KA, and KA and the butanol fraction of Petasites japonicus were administered and the fatality rate was measured.
The fractions were subjected to the same procedures as described above to measure the fatality rate.

[3] = system: ICR mice (neurotoxic behavior induced by KA); experiment: Neuronal behavior change (tail arch, tremor, seizure) after KA; type: in vivo, mouse; settings: KA 44 mg/kg, fraction I or II 200 mg/kg
Protocol: (§1) Male ICR mice (22.5±2.5 g, 6 to 8 weeks old) were freely fed with solid feed for experimental animals (SamYang Co. Korea) in a polycarbonate cage (5 animals per cage). The mice were bred under conditions including a temperature and a relative humidity maintained at 23±3° C. and 60±10%, respectively, a light-dark cycle of 12 hours and illumination of 150 to 200 Lux. Only the animals which had been judged to be healthy during the acclimation period were randomly assigned to groups for the experiment. The breeding and experiment of animals were performed according to Guide for care and use of laboratory animal (National Institutes of Health Guidelines, 1985, 85-23). The groups of mice were unspecifically grouped and the body weight was measured every day. […] After the KA injection, the behavioral change of the mice was monitored by the method of Kondo et al. (Journal of Cerebral Blood Flow and Metabolism, 1997, 17, 241-256). Also, on the next day after the KA injection, the brains were removed from the mice, frozen in liquid nitrogen and stored at −80° C. for 48 hours at maximum until used.

[4] = system: pyramidal cells in CA1 and CA3 sites of the hippocampus; experiment: Tissue biopsy: surviving nerve cells in hippocampus after KA; type: in vivo, mouse; settings: brain removed on the next day after KA; butanol fraction pretreated
Text: Also, the brain removed on the next day after the administration of KA was subjected to a tissue biopsy to examine damage of pyramidal cells in CA1 and CA3 sites of the hippocampus.

glutathione (GSH) = type: in vivo, mouse; settings: KA administered alone
Protocol: About 0.2 g of brain tissue from each brain was put into cold 6% metaphosphoric acid solution and crushed using a cold ceramic percussion motor. The crushed solution was centrifuged at 4° C., 27,000 g for 20 minutes. The supernatant was taken. To 0.05 Ml of the supernatant, 0.39 Ml of 100 mM phosphate buffer (pH 7.4) containing 5 mM EDTA, 0.025 ml of 10 mM DTNB (5,5-dithiobis-(2-nitrobenzoic acid)) and 0.08 ml of 5 mM NADPH were added and equilibrated at 25° C. for 3 minutes. Then, 2 units of glutathione (GSH) reductase was added thereto to initiate a reaction. The formation of 2-nitro-5-thiobenzoic acid was monitored by measuring the adsorption at 412 nm using a UV/VIS spectrophotometer (Roberts, J. C. and Francetic, D. J., Analytical Biochemistry, 1993, 211, 183-187; Raymond, C. et al., Journal of Nutrition, 1995, 125, 3062-3070). The total GSH amount contained in a sample was determined from a standard curve constructed by plotting the adsorption at 412 nm versus the known amount of GSH. The amount of GSH was shown by an average±S.E.M of data obtained by performing the experiment using 4 to 8 mice 3 times.

[5] = system: lipid peroxidation in brain tissue; experiment: KA-induced lipid peroxidation (TBARS amount) in brain homogenate of treated mice; type: in vivo, mouse; settings: KA alone, or pre-treatment with butanol fraction 400 mg/kg, Fraction I or Fraction II
Protocol: Concretely, the brains were removed from mice
Brain tissue from each brain was crushed in 0.25M sucrose solution and the crushed brain homogenate was measured for the TBARS amount contained therein.

glutathione peroxidase = type: in vivo, mouse; settings: KA alone or butanol fraction pre-administered; FIG. 6a
[6] = Change in body weight and brain weight of mice
Protocol: as §1

[7] = KA 44 mg/kg, fraction I or II 200 mg/kg
[8] = KA 50 mg/kg, butanol fraction 400 mg/kg

With `O=C1O[C@H]([C@@H](O)CO)C(O)=C1O` [Ascorbic acid] the “IC50 (inhibition of lipid peroxidation)” value [1] was 790 µg/mL.
With `C=C(C)[C@H]1CN[C@H](C(=O)O)[C@H]1CC(=O)O` [KA, kainic acid] the Fatality rate ([2]; Exp. Group 1: KA 50 mg/kg intraperitoneal, butanol fraction 400 mg/kg oral once per day for 4 days before KA) was 54%, the Fatality rate ([2]; Exp. Group 2: KA 50 mg/kg intraperitoneal, butanol fraction 150 mg/kg oral once per day for 4 days before KA) was 63.6% and the Fatality rate [2, 7] was 54%. The “Tail arch (upper value, unit not given)” value ([3]; stage 1) was 12.4 ± 4.7, the “Tail arch (value in brackets)” value ([3]; stage 1) was “(100%)” and the “Tremor (upper value, unit not given)” value ([3]; stage 2) was 16.7 ± 6.1. The “Tremor (value in brackets)” value ([3]; stage 2) was “(100%)”, the “Seizure (upper value, unit not given)” value ([3]; stage 3) was 18.9 ± 19.5 and the “Seizure (value in brackets)” value ([3]; stage 3) was “(100%)”. For the same compound, the “Surviving nerve cells in the CA1 site of the hippocampus” value [4] was 18.5%, the “Surviving nerve cells in the CA3 site of the hippocampus” value [4] was 8.9% and the “Total GSH amount in the brain tissue” value (glutathione (GSH)) was 20%. For the same compound, the “TBARS content of brain homogenate (in words)” value [5] was “increased”, the “Glutathione peroxidase activity (in words)” value (glutathione peroxidase) was “reduced” and the Body weight change [6, 7] was 0.39 ± 0.29 g. For the same compound, the Brain weight [6, 7] was 0.327 ± 0.0098 g, the Final body weight [6, 7] was 29.88 ± 0.86 g and the Initial body weight [6, 7] was 29.49 ± 0.91 g. It also gave a Body weight change [6, 8] of 0.95 ± 0.385 g, a Brain weight [6, 8] of 0.346 ± 0.0038 g and a Final body weight [6, 8] of 32.34 ± 0.58 g. It also gave an Initial body weight [6, 8] of 31.39 ± 0.49 g.
